According to patent US6444235B1, “Canelo products and methods of making and using same” (bioActiva microtechne, priority 1999, dated 2002):

System: p-388 (linfocitic leukemia)
Test: biological activity on P-388 leukemia cultures
Type: cell-based

O=C1c2c(O)cc(O)cc2O[C@H](c2ccc(O)c(O)c2)[C@H]1O [taxifoline]
anticarcinogenic activity on P-388 cultures (leufocytic leukemia): has shown anticarcinogenic activity
